Broadly, the MIC is the lowest concentration that inhibits growth of the organism.

≈ marks a conversion by molar mass, not a printed value.

The experiment concerns Staphylococcus aureus. The experiment is described as follows: Antibacterial activity against Staphylococcus aureus clinical isolate 3 assessed as growth inhibition at pH 5 after 16 to 18 hr by NCCLS agar dilution method. The class given is functional. On the technique in general: In agar dilution, organisms are placed on agar that contains the substance at set levels.

As to `CO/N=C/CC(=O)c1ccc(OC)cc1`, the minimum inhibitory concentration (MIC) worked out at 32 µg/mL (≈ 154 µM).

Values taken from ChEMBL document CHEMBL3045868, “Synthesis and antibacterial activities of para-alkoxy phenyl--ketoaldehyde derivatives” (Med Chem Res, 2013).
